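Five concentrations, 48 hours, 96-well plates. TGI is the concentration that stops growth completely.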
Columns and labels:
Assay in all cases: NCI anticancer screen, dose series, 48 h
DMS 273 small cell lung = system: DMS 273 small cell lung
SNB-78 CNS = system: SNB-78 CNS
SF-539 CNS = system: SF-539 CNS
SF-295 CNS = system: SF-295 CNS
NCI/ADR-RES ovarian = system: NCI/ADR-RES ovarian
DMS 114 small cell lung = system: DMS 114 small cell lung
OVCAR-8 ovarian = system: OVCAR-8 ovarian
A498 renal = system: A498 renal
M19-MEL melanoma = system: M19-MEL melanoma
TK-10 renal = system: TK-10 renal
M14 melanoma = system: M14 melanoma
HS 578T breast = system: HS 578T breast
786-0 renal = system: 786-0 renal

| SMILES | TGI (DMS 273 small cell lung) [µM] | TGI (SNB-78 CNS) [µM] | TGI (SF-539 CNS) [µM] | TGI (SF-295 CNS) [µM] | TGI (NCI/ADR-RES ovarian) [µM] | TGI (DMS 114 small cell lung) [µM] | TGI (OVCAR-8 ovarian) [µM] | TGI (A498 renal) [µM] | TGI (M19-MEL melanoma) [µM] | TGI (TK-10 renal) [µM] | TGI (M14 melanoma) [µM] | TGI (HS 578T breast) [µM] | TGI (786-0 renal) [µM] |
| --- | --- | --- | --- | --- | --- | --- | --- | --- | --- | --- | --- | --- | --- |
| COc1cc2c(cc1OC)-c1c3c(cc4c1[C@@H](C2)N(C)CC4)OCO3 | 14.5 | 43.9 | 16.5 | 16.7 | 30.2 | 24.8 | 31.9 | 16.9 | 24.1 |  |  |  |  |
| NCCCCNCCCNC(=O)c1nc(-c2csc(CCN)n2)sc1Cl | > 100 | > 100 | > 100 | > 100 |  | > 100 | > 100 | > 100 | > 100 | > 100 | > 100 |  |  |
| C#CCn1c(=O)c(C#N)c(O)c2cc3ccccc3nc21 | > 100 | > 100 | > 100 | > 100 | > 100 | > 100 | > 100 | > 100 | > 100 |  |  |  |  |
| CCc1ccc2c(c1)CC1(C2)Cc2cc3c(cc2C1)C(=O)CC3 (stereo unspecified) |  |  | 61.4 | 65.3 | > 100 |  | 64.9 | 46.4 |  | > 100 | > 100 | > 100 | 60.2 |
| CCOC(=O)C(CS)NC(=O)CCCCCCCC(=O)NC(CS)C(=O)OCC (stereo unspecified) |  |  | > 100 | > 100 | > 100 |  | > 100 | > 100 |  | > 100 | > 100 | > 100 | > 100 |

Source: PubChem BioAssay (NCI)
